Data published in patent publication US10214534B2, “Substituted 2-phenyl (AZA)benzofuran compounds for the treatment of hepatitis C” (BRISTOL-MYERS SQUIBB COMPANY, priority 2014, dated 2019).
Read-outs that look alike come from different tables or passages of the source.

Experiments:
[1] = system: genotype 1b (Con-1) HCV replicon; test: HCV replicon luciferase assay; format: cell-based; details: Hepatitis C virus, 72 h, genotype 1b replicon, Huh-7, Renilla luciferase, 3 days
Experimental: The cell lines used to evaluate compounds consist of a human hepatocyte derived cell line (Huh-7) that constitutively expresses a genotype 1b (Con-1) HCV replicon or a genotype 1b (Con-1) HCV replicon with an asparagine replacing the cysteine at amino acid 316, or a genotype 2a (JFH-1) replicon, containing a Renilla luciferase reporter gene. These cells were maintained in Dulbecco's modified Eagle medium (DMEM) containing 10% FBS, 100 U/mL penicillin/streptomycin and 1.0 mg/mL G418.
To evaluate compound efficacy, titrated compounds were transferred to sterile 384-well tissue culture treated plates, and the plates were seeded with HCV replicon cells (50 μL at a density of 2.4×10^3 cells/well) in DMEM containing 4% FBS (final DMSO concentration at 0.5%). After 3 days incubation at 37° C., cells were analyzed for Renilla Luciferase activity using the EnduRen substrate (Promega cat #E6485) according to the manufacturer's directions. Briefly, the EnduRen substrate was diluted in DMEM and then added to the plates to a final concentration of 7.5 μM. The plates were incubated for at least 1 h at 37° C. then read on a Viewlux Imager (PerkinElmer) using a luminescence program. The 50% effective concentration (EC50) was calculated using the four-parameter logistic formula noted above.

HCV [2] = details: cited from earlier work
HCV [3] = details: cited from earlier work; remark: listed apart in the source

Compound | EC50 ([1]; read-out: EC50 1b (class)) | other results
CCN(c1cc2oc(-c3ccc(Oc4ccccc4)cc3)c(C(=O)NC)c2cc1-c1cccc(C(=O)NC(C)(C)C)c1)S(C)(=O)=O [Compound 1001] | < 0.1 µM | 
CCN(c1cc2oc(-c3ccc(Oc4ccc(F)cc4)cc3)c(C(=O)NC)c2cc1-c1cccc(C(=O)NC(C)(C)C)c1)S(C)(=O)=O [Compound 1002] | < 0.1 µM | 
CCN(c1cc2oc(-c3ccc(Oc4cccc(F)c4)cc3)c(C(=O)NC)c2cc1-c1cccc(C(=O)NC(C)(C)C)c1)S(C)(=O)=O [Compound 1003] | < 0.1 µM | EC50 ([1]; read-out: EC50 (uM) 1b): 0.0023 µM
CCN(c1cc2oc(-c3ccc(Oc4ccccc4F)cc3)c(C(=O)NC)c2cc1-c1cccc(C(=O)NC(C)(C)C)c1)S(C)(=O)=O [Compound 1004] | < 0.1 µM | 
CCN(c1cc2oc(-c3ccc(Oc4ccc(OC)cc4)cc3)c(C(=O)NC)c2cc1-c1cccc(C(=O)NC(C)(C)C)c1)S(C)(=O)=O [Compound 1005] | 0.1 to 1 µM | EC50 ([1]; read-out: EC50 (uM) 1b): 0.12 µM
CCN(c1cc2oc(-c3ccc(Oc4cccc(OC)c4)cc3)c(C(=O)NC)c2cc1-c1cccc(C(=O)NC(C)(C)C)c1)S(C)(=O)=O [Compound 1006] | < 0.1 µM | 
CCN(c1cc2oc(-c3ccc(Oc4ccccc4OC)cc3)c(C(=O)NC)c2cc1-c1cccc(C(=O)NC(C)(C)C)c1)S(C)(=O)=O [Compound 1007] | < 0.1 µM | EC50 ([1]; read-out: EC50 (uM) 1b): 0.024 µM
CCN(CC)c1cc2oc(-c3ccc(Oc4cccc(F)c4)cc3)c(C(=O)NC)c2cc1-c1ccc(O)c(C(N)=O)c1 [Compound 1008] | < 0.1 µM | EC50 ([1]; read-out: EC50 (uM) 1b): 0.013 µM
CCN(CC)c1cc2oc(-c3ccc(Oc4cccc(F)c4)cc3)c(C(=O)NC)c2cc1-c1ccc(OC)c(C(N)=O)c1 [Compound 1010] | 0.1 to 1 µM | 
CCN(CC)c1cc2oc(-c3ccc(Oc4cccc(F)c4)cc3)c(C(=O)NC)c2cc1-c1cccc(C(=O)NC(C)(C)C(=O)O)c1 [Compound 1012] | > 1 µM | EC50 ([1]; read-out: EC50 (uM) 1b): 1.47 µM
CCNc1cc2oc(-c3ccc(Oc4cccc(F)c4)cc3)c(C(=O)NC)c2cc1-c1cccc(C(=O)NC(C)(C)CC(=O)O)c1 [Compound 1013] | 0.1 to 1 µM | 
CCOC(=O)c1c(-c2ccc(Oc3cccc(O)c3)cc2)oc2cc([N+](=O)[O-])c(O)cc12 [Compound 1014] | > 1 µM | EC50 ([1]; read-out: EC50 (uM) 1b): 9.94 µM
CCN(c1cc2oc(-c3ccc(Oc4cccc(F)c4)cc3)c(C(=O)NC)c2cc1-c1cccc(C(=O)NC2(C)CC2)c1)S(C)(=O)=O [Compound 1015] | > 1 µM | 
CCN(c1cc2oc(-c3ccc(Oc4cccc(Cl)c4)cc3)c(C(=O)NC)c2cc1-c1cccc(C(N)=O)c1)S(C)(=O)=O [Compound 1016] | < 0.1 µM | 
CCN(c1cc2oc(-c3ccc(Oc4cccc(F)c4)cc3)c(C(=O)NC)c2cc1-c1cccc(C(=O)N[C@@H](C)C(F)(F)F)c1)S(C)(=O)=O [Compound 1017] | < 0.1 µM | EC50 ([1]; read-out: EC50 (uM) 1b): 0.0062 µM
CCN(c1cc2oc(-c3ccc(Oc4cccc(F)c4)cc3)c(C(=O)NC)c2cc1-c1cccc(C(N)=O)c1)S(C)(=O)=O [Compound 1018] | < 0.1 µM | 
CCN(c1cc2oc(-c3ccc(Oc4cccc(Cl)c4)cc3)c(C(=O)NC)c2cc1-c1cccc(C(=O)N[C@@H](C)C(F)(F)F)c1)S(C)(=O)=O [Compound 1019] | < 0.1 µM | 
CNC(=O)c1c(-c2ccc(Oc3cccc(F)c3)cc2)oc2cc(N(C)S(C)(=O)=O)c(-c3cccc(C(=O)NCC(F)(F)F)c3)cc12 [Compound 1020] | < 0.1 µM | 
[2H]C([2H])([2H])C(NC(=O)c1cc(-c2cc3c(C(=O)NC)c(-c4ccc(Oc5cccc(F)c5)cc4)oc3cc2N(CC)S(C)(=O)=O)ccc1OC)(C([2H])([2H])[2H])C([2H])([2H])[2H] [Compound 1021] | < 0.1 µM | 
[2H]C([2H])([2H])C(NC(=O)c1cc(-c2cc3c(C(=O)NC)c(-c4ccc(Oc5ccc(F)cc5)cc4)oc3cc2N(CC)S(C)(=O)=O)ccc1OC)(C([2H])([2H])[2H])C([2H])([2H])[2H] [Compound 1022] | < 0.1 µM | 
CCN(c1cc2oc(-c3ccc(Oc4cccc(F)c4)cc3)c(C(=O)NC)c2cc1-c1cccc(C(=O)NCC(C)(C)CO)c1)S(C)(=O)=O [Compound 1023] | < 0.1 µM | EC50 ([1]; read-out: EC50 (uM) 1b): 0.0028 µM
CNC(=O)c1c(-c2ccc(Oc3ccc(F)cc3)cc2)oc2cc(N(C)S(C)(=O)=O)c(-c3cccc(C(=O)NCC(F)(F)F)c3)cc12 [Compound 1026] | < 0.1 µM | 
CNC(=O)c1c(-c2ccc(Oc3ccccc3)cc2)oc2nc(CCC(F)(F)F)c(-c3cccc(C(=O)NC(C)(C)C)c3)cc12 [Compound 2001] | < 0.1 µM | 

Compound | EC50 ([1]; read-out: EC50 1b (class)) | other results
CNC(=O)c1c(-c2ccc(Oc3ccc(C)cc3)cc2)oc2nc(CCC(F)(F)F)c(-c3cccc(C(=O)NC(C)(C)C)c3)cc12 [Compound 2002] | < 0.1 µM | 
CNC(=O)c1c(-c2ccc(Oc3ccc(OC)cc3)cc2)oc2nc(CCC(F)(F)F)c(-c3cccc(C(=O)NC(C)(C)C)c3)cc12 [Compound 2003] | 0.1 to 1 µM | 
CNC(=O)c1c(-c2ccc(Oc3ccc(F)cc3)cc2)oc2nc(CCC(F)(F)F)c(-c3cccc(C(=O)NC(C)(C)C)c3)cc12 [Compound 2004] | < 0.1 µM | 
CNC(=O)c1c(-c2ccc(Oc3cccc(F)c3)cc2)oc2nc(CCC(F)(F)F)c(-c3cccc(C(=O)NC(C)(C)C)c3)cc12 [Compound 2005] | < 0.1 µM | 
CNC(=O)c1c(-c2ccc(Oc3ccccc3F)cc2)oc2nc(CCC(F)(F)F)c(-c3cccc(C(=O)NC(C)(C)C)c3)cc12 [Compound 2006] | < 0.1 µM | 
CNC(=O)c1c(-c2ccc(Oc3cccc(C)c3)cc2)oc2nc(CCC(F)(F)F)c(-c3cccc(C(=O)NC(C)(C)C)c3)cc12 [Compound 2007] | < 0.1 µM | 
CNC(=O)c1c(-c2ccc(Oc3ccccc3C)cc2)oc2nc(CCC(F)(F)F)c(-c3cccc(C(=O)NC(C)(C)C)c3)cc12 [Compound 2008] | < 0.1 µM | 
CNC(=O)c1c(-c2ccc(Oc3cccc(OC)c3)cc2)oc2nc(CCC(F)(F)F)c(-c3cccc(C(=O)NC(C)(C)C)c3)cc12 [Compound 2009] | < 0.1 µM | 
CNC(=O)c1c(-c2ccc(Oc3ccccc3OC)cc2)oc2nc(CCC(F)(F)F)c(-c3cccc(C(=O)NC(C)(C)C)c3)cc12 [Compound 2010] | < 0.1 µM | 
CNC(=O)c1c(-c2ccc(Oc3cccnc3)cc2)oc2nc(CCC(F)(F)F)c(-c3cccc(C(=O)NC(C)(C)C)c3)cc12 [Compound 2011] | < 0.1 µM | 
CNC(=O)c1c(-c2ccc(Oc3ccccn3)cc2)oc2nc(CCC(F)(F)F)c(-c3cccc(C(=O)NC(C)(C)C)c3)cc12 [Compound 2012] | > 1 µM | 
CNC(=O)c1c(-c2ccc(Oc3ccc(C(=O)O)cc3)cc2)oc2nc(CCC(F)(F)F)c(-c3cccc(C(=O)NC(C)(C)C)c3)cc12 [Compound 2013] | > 1 µM | 
CNC(=O)c1c(-c2ccc(Oc3cccc(F)c3)cc2)oc2nc(CCC(F)(F)F)c(-c3ccc(OC)c(C(=O)NC4(c5ncccn5)CC4)c3)cc12 [Compound 2014] | < 0.1 µM | 
CCCCOc1ccc(-c2oc3nc(CCC(F)(F)F)c(-c4cccc(C(=O)NC(C)(C)C)c4)cc3c2C(=O)NC)cc1 [Compound 3001] | < 0.1 µM | 
CNC(=O)c1c(-c2ccc(OCC(F)(F)F)cc2)oc2nc(CCC(F)(F)F)c(-c3cccc(C(=O)NC(C)(C)C)c3)cc12 [Compound 3002] | < 0.1 µM | 
CNC(=O)c1c(-c2ccc(N3CCCC3)cc2)oc2nc(CCC(F)(F)F)c(-c3cccc(C(=O)NC(C)(C)C)c3)cc12 [Compound 4001] | > 1 µM | 
CNC(=O)c1c(-c2ccc(NCC(F)F)cc2)oc2nc(NCC(F)F)c(-c3cccc(C(=O)NC(C)(C)C)c3)cc12 [Compound 4002] | < 0.1 µM | EC50 ([1]; read-out: EC50 (uM) 1b): 0.0094 µM
CNC(=O)c1c(-c2ccc(Sc3ccccc3)cc2)oc2nc(CCC(F)(F)F)c(-c3cccc(C(=O)NC(C)(C)C)c3)cc12 [Compound 5001] | 0.1 to 1 µM | EC50 ([1]; read-out: EC50 (uM) 1b): 0.16 µM
CNC(=O)c1c(-c2ccc(C(C#N)C(N)=O)cc2)oc2nc(CCC(F)(F)F)c(-c3cccc(C(=O)NC(C)(C)C)c3)cc12 (stereo not drawn) [Compound 6001] | 0.1 to 1 µM | EC50 ([1]; read-out: EC50 (uM) 1b): 0.34 µM
CCNc1nc2oc(-c3ccc(C)cc3)c(C(=O)NC)c2cc1-c1cccc(C(=O)NC(C)(C)C)c1 [Compound 6002, 5-(3-(tert-butylcarbamoyl)phenyl)-6-(ethylamino)-N-methyl-2-(p-tolyl)furo[2,3-b]pyridine-3-carboxamide] | < 0.1 µM | EC50 ([1]; read-out: EC50 (uM) 1b): 0.0036 µM
CCNc1nc2oc(-c3ccc(C)cc3)c(C(=O)NC)c2cc1-c1cccc(C(=O)NC2(C(F)(F)F)CC2)c1 [Compound 6003, 6-(ethylamino)-N-methyl-2-(p-tolyl)-5-(3-((1-(trifluoromethyl)cyclopropyl)carbamoyl)phenyl)furo[2,3-b]pyridine-3-carboxamide] | < 0.1 µM | EC50 ([1]; read-out: EC50 (uM) 1b): 0.0061 µM
CNC(=O)c1c(-c2ccc(F)cc2)oc2cc(N(CCO)S(C)(=O)=O)c(C3CC3)cc12 [HCV-796] |  | toxicity during extended dosing (HCV [2]; extended dosing of the combination regimens): hepatic toxicity; HCV RNA levels in patients (HCV [2]; patients, single agent transient, more robust with interferon and ribavirin): reduce HCV RNA levels
alpha-interferon and ribavirin |  | sustained efficacy, share of patients (HCV [3]): 40%
